Source: PubChem BioAssay AID1963866 (Molecular Pharmacology Branch, DTP, NCI, 2024)

Test system: PDC KRAS tumor spheroids with HUVEC/MSC, viability
Experiment: Anticancer human tumor 349418-098-R-PDC patient-derived lung adenocarcinoma cell line growth inhibition [KRAS2]
Settings: for viability, T/C: stronger effect = lower value
In short: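 Combination screen of spheroid viability in tumor-cell co-cultures with endothelial (HUVEC) and mesenchymal stem cell stroma. Each agent was tested in half-log dilutions, topping at clinical Cmax or at 10 microM without a known Cmax.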

[1] = curve of first compound, second compound 0.1 µM
[2] = curve of first compound, second compound 0.316 µM
[3] = curve of first compound, second compound 1 µM
[4] = curve of first compound, second compound 3.16 µM
[5] = curve of first compound, second compound 10 µM
[6] = second compound 0.1 µM, first compound 0.0316 µM
[7] = second compound 0.1 µM, first compound 0.1 µM
[8] = second compound 0.1 µM, first compound 0.316 µM
[9] = second compound 0.1 µM, first compound 1 µM
[10] = second compound 0.1 µM, first compound 3.16 µM
[11] = second compound 0.1 µM, first compound 10 µM
[12] = second compound 0.316 µM, first compound 0.0316 µM
[13] = second compound 0.316 µM, first compound 0.1 µM
[14] = second compound 0.316 µM, first compound 0.316 µM
[15] = second compound 0.316 µM, first compound 1 µM
[16] = second compound 0.316 µM, first compound 3.16 µM
[17] = second compound 0.316 µM, first compound 10 µM
[18] = second compound 1 µM, first compound 0.0316 µM
[19] = second compound 1 µM, first compound 0.1 µM
[20] = second compound 1 µM, first compound 0.316 µM
[21] = second compound 1 µM, first compound 1 µM
[22] = second compound 1 µM, first compound 3.16 µM
[23] = second compound 1 µM, first compound 10 µM
[24] = second compound 3.16 µM, first compound 0.0316 µM
[25] = second compound 3.16 µM, first compound 0.1 µM
[26] = second compound 3.16 µM, first compound 0.316 µM
[27] = second compound 3.16 µM, first compound 1 µM
[28] = second compound 3.16 µM, first compound 3.16 µM
[29] = second compound 3.16 µM, first compound 10 µM
[30] = second compound 10 µM, first compound 0.0316 µM
[31] = second compound 10 µM, first compound 0.1 µM
[32] = second compound 10 µM, first compound 0.316 µM
[33] = second compound 10 µM, first compound 1 µM
[34] = second compound 10 µM, first compound 3.16 µM
[35] = second compound 10 µM, first compound 10 µM
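Also: spheroids exposed to compounds for seven days before readout.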

COc1cc2nccc(Oc3ccc(NC(=O)C4(C(=O)Nc5ccc(F)cc5)CC4)cc3)c2cc1OC + C=CC(=O)N1CCN(c2nc(=O)n(-c3c(C)ccnc3C(C)C)c3nc(-c4c(O)cccc4F)c(F)cc23)C(C)C1
IC50 [1]: 1.69 µM
IC50 [2]: 1.65 µM
IC50 [3]: 1.61 µM
IC50 [4]: 1.19 µM
IC50 [5]: < 0.0316 µM
viability, T/C [6]: 99.4%
viability, T/C [7]: 98.3%
viability, T/C [8]: 90.7%
viability, T/C [9]: 78.6%
viability, T/C [10]: 13.2%
viability, T/C [11]: 18.1%
viability, T/C [12]: 93.2%
viability, T/C [13]: 92.2%
viability, T/C [14]: 86.4%
viability, T/C [15]: 75.9%
viability, T/C [16]: 9.48%
viability, T/C [17]: 22.8%
viability, T/C [18]: 83.2%
viability, T/C [19]: 80.7%
viability, T/C [20]: 73.2%
viability, T/C [21]: 76.7%
viability, T/C [22]: 10.7%
viability, T/C [23]: 14.3%
viability, T/C [24]: 62.1%
viability, T/C [25]: 64.5%
viability, T/C [26]: 58.6%
viability, T/C [27]: 56.4%
viability, T/C [28]: 10.2%
viability, T/C [29]: 16.6%
viability, T/C [30]: 30.1%
viability, T/C [31]: 38.1%
viability, T/C [32]: 36%
viability, T/C [33]: 30.1%
viability, T/C [34]: 7.88%
viability, T/C [35]: 9.17%

CC1COCCN1c1cc(-c2ccnn2C)c2ccnc(-c3ccn[nH]3)c2n1 (centres undefined) + C=CC(=O)N1CCN(c2nc(OCC3CCCN3C)nc3c2CCN(c2cccc4cccc(C)c24)C3)CC1CC#N
IC50 (curve of first compound, second compound 0.0316 µM): 0.0298 µM
IC50 [1]: 0.0311 µM
IC50 [2]: 0.0238 µM
IC50 [3]: < 0.01 µM
IC50 [4]: < 0.01 µM
viability, T/C (second compound 0.0316 µM, first compound 0.01 µM): 94.1%
viability, T/C (second compound 0.0316 µM, first compound 0.0316 µM): 47.6%
viability, T/C (second compound 0.0316 µM, first compound 0.1 µM): 9.45%
viability, T/C (second compound 0.0316 µM, first compound 0.316 µM): 5.83%
viability, T/C (second compound 0.0316 µM, first compound 1 µM): 4.78%
viability, T/C (second compound 0.0316 µM, first compound 3.16 µM): 4.54%
viability, T/C (second compound 0.1 µM, first compound 0.01 µM): 112%
viability, T/C [6]: 49.1%
viability, T/C [7]: 9.48%
viability, T/C [8]: 5.64%
viability, T/C [9]: 4.53%
viability, T/C [10]: 3.65%
viability, T/C (second compound 0.316 µM, first compound 0.01 µM): 102%
viability, T/C [12]: 33%
viability, T/C [13]: 5.66%
viability, T/C [14]: 4.96%
viability, T/C [15]: 4.7%
viability, T/C [16]: 4.39%
viability, T/C (second compound 1 µM, first compound 0.01 µM): 43.6%
viability, T/C [18]: 4.15%
viability, T/C [19]: 3.41%
viability, T/C [20]: 4.26%
viability, T/C [21]: 3.79%
viability, T/C [22]: 3.79%
viability, T/C (second compound 3.16 µM, first compound 0.01 µM): 0.1%
viability, T/C [24]: 0.21%
viability, T/C [25]: 0.07%
viability, T/C [26]: 0.06%
viability, T/C [27]: 0.07%
viability, T/C [28]: 0.12%

CN(C)C/C=C/C(=O)Nc1cc2c(Nc3ccc(F)c(Cl)c3)ncnc2cc1O[C@H]1CCOC1
viability, T/C (compound 0.001 µM): 94.4% [middle of 5 runs]
viability, T/C (compound 0.0316 µM): 99% [middle of 5 runs]
viability, T/C (compound 0.1 µM): 97.2% [middle of 5 runs]
IC50 (curve of compound): > 0.1 µM

COc1cc2nccc(Oc3ccc(NC(=O)C4(C(=O)Nc5ccc(F)cc5)CC4)cc3)c2cc1OC + COc1cc2nc(C)nc(NC(C)c3cc(N)cc(C(F)(F)F)c3)c2cc1OC1CCOC1
IC50 [1]: 0.936 µM
IC50 [2]: 0.732 µM
IC50 [3]: 0.656 µM
IC50 [4]: 0.611 µM
IC50 [5]: < 0.0316 µM
viability, T/C [6]: 111%
viability, T/C [7]: 107%
viability, T/C [8]: 81.8%
viability, T/C [9]: 9.71%
viability, T/C [10]: 21.9%
viability, T/C [11]: 113%
viability, T/C [12]: 102%
viability, T/C [13]: 97.3%
viability, T/C [14]: 71.2%
viability, T/C [15]: 8.51%
viability, T/C [16]: 15.3%
viability, T/C [17]: 103%
viability, T/C [18]: 109%
viability, T/C [19]: 97.7%
viability, T/C [20]: 65.4%
viability, T/C [21]: 8.96%
viability, T/C [22]: 12.7%
viability, T/C [23]: 102%
viability, T/C [24]: 98.4%
viability, T/C [25]: 85.6%
viability, T/C [26]: 72.6%
viability, T/C [27]: 6.65%
viability, T/C [28]: 2.1%
viability, T/C [29]: 90.6%
viability, T/C [30]: 44.6%
viability, T/C [31]: 11.7%
viability, T/C [32]: 7.86%
viability, T/C [33]: 0.78%
viability, T/C [34]: 0.14%
viability, T/C [35]: 61.9%

COC(=O)c1ccc2c(C(=Nc3ccc(N(C)C(=O)CN4CCN(C)CC4)cc3)c3ccccc3)c(O)[nH]c2c1 + CC1OCC2(CCN(c3cnc(Sc4ccnc(N)c4Cl)c(N)n3)CC2)C1N
IC50 [1]: 1.45 µM
IC50 [2]: 1.46 µM
IC50 [3]: 1.23 µM
IC50 [4]: 1.06 µM
IC50 [5]: 0.6 µM
viability, T/C [6]: 100%
viability, T/C [7]: 104%
viability, T/C [8]: 82.3%
viability, T/C [9]: 68.1%
viability, T/C [10]: 12.1%
viability, T/C [11]: 15.3%
viability, T/C [12]: 102%
viability, T/C [13]: 93.3%
viability, T/C [14]: 92.5%
viability, T/C [15]: 68.7%
viability, T/C [16]: 7.79%
viability, T/C [17]: 14.9%
viability, T/C [18]: 82.6%
viability, T/C [19]: 114%
viability, T/C [20]: 71.5%
viability, T/C [21]: 63.6%
viability, T/C [22]: 12.2%
viability, T/C [23]: 12.3%
viability, T/C [24]: 79.2%
viability, T/C [25]: 101%
viability, T/C [26]: 75.3%
viability, T/C [27]: 54.3%
viability, T/C [28]: 14%
viability, T/C [29]: 11.5%
viability, T/C [30]: 81.2%
viability, T/C [31]: 75.4%
viability, T/C [32]: 61.5%
viability, T/C [33]: 42.2%
viability, T/C [34]: 14.8%
viability, T/C [35]: 7.52%
